According to patent US7759366B2 (Sanofi-Aventis, priority 2006, dated 2010):

target: hCB1R (Homo sapiens, UniProt P21554); assay: In vitro functional assay (FLIPR, intracellular Ca2+) with recombinant HEK293 cells, CB1; type: cell-based; set-up: expressed in transfected cells; host or cells: HEK293; conditions: recombinant HEK293 cells expressing CB1 and Galpha16; 20 min preincubation, then reference agonist; Ca2+ change; read-out: hCB1R: FLIPR; IC50
Sequence (P21554 whole entry): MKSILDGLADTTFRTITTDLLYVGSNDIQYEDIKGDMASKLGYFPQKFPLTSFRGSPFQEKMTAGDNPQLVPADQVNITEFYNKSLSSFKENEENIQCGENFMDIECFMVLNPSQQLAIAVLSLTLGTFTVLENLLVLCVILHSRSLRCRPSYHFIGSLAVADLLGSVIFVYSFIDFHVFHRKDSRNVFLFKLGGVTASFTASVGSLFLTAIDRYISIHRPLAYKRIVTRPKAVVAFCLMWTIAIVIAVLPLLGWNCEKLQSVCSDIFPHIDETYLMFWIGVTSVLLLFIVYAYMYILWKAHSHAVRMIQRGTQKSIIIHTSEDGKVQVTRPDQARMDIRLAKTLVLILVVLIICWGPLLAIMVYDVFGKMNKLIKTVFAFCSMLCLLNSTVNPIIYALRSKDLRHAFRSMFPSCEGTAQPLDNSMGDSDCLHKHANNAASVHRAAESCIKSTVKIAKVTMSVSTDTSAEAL
Text: In Vitro Functional Assays with Recombinant Cells:

**Q.** Which IC50 does the source give for `CC1(C)C(=O)N(c2ccc(F)c(C(F)(F)F)c2)C(=O)N1Cc1ccc(F)cc1Nc1ccc(F)nc1` [Example 254, 1-[4-Fluoro-2-(6-fluoropyridin-3-ylamino)benzyl]-3-(4-fluoro-3-trifluoromethylphenyl)-5,5-dimethylimidazolidine-2,4-dione] here?
**A.** The IC50 was 2 nM.

**Q.** For `CC1(C)C(=O)N(c2ccc(C#N)c(C(F)(F)F)c2)C(=O)N1Cc1ccccc1Nc1ccc(N)c(F)c1` [Example 95, 4-{3-[2-(4-Amino-3-fluorophenylamino)benzyl]-4,4-dimethyl-2,5-dioxoimidazolidin-1-yl}-2-trifluoromethylbenzonitrile], which IC50 is on record?
**A.** Its IC50 is 31 nM.

**Q.** How did the IC50 turn out when `COC(=O)CNc1ccc(Nc2ccccc2CN2C(=O)N(c3ccc(C#N)c(C(F)(F)F)c3)C(=O)C2(C)C)cc1` [Example 177, Methyl (4-{2-[3-(4-cyano-3-trifluoromethylphenyl)-5,5-dimethyl-2,4-dioxoimidazolidin-1-ylmethyl]phenylamino}phenylamino)acetate] was run?
**A.** The IC50 was 1 nM.

**Q.** `CC1(C)C(=O)N(c2ccc(F)c(C(F)(F)F)c2)C(=O)N1Cc1ccc(F)cc1Nc1ccc2c(c1)C(=O)CCC2` [Example 204, 1-[4-Fluoro-2-(8-oxo-5,6,7,8-tetrahydronaphthalen-2-ylamino)benzyl]-3-(4-fluoro-3-trifluoromethylphenyl)-5,5-dimethylimidazolidine-2,4-dione] was tested. Which IC50 did it give?
**A.** Its IC50 is 46 nM.

**Q.** How did the IC50 turn out when `CC1(C)C(=O)N(c2ccc(C#N)c(-c3ccc(F)cc3)c2)C(=O)N1Cc1ccc(F)cc1Nc1ccc(F)cc1F` [Example 253, 5-{3-[2-(2,4-Difluorophenylamino)-4-fluorobenzyl]-4,4-dimethyl-2,5-dioxoimidazolidin-1-yl}-4′-fluorobiphenyl-2-carbonitrile] was run?
**A.** The IC50 was 29 nM.

**Q.** `CC1(C)C(=O)N(c2ccc(C#N)c(C(F)(F)F)c2)C(=O)N1Cc1ccccc1Nc1ccc(Cl)cc1` [Example 4, 4-{3-[2-(4-chlorophenylamino)benzyl]-4,4-dimethyl-2,5-dioxoimidazolidin-1-yl}-2-trifluoromethylbenzonitrile] was tested. Which IC50 did it give?
**A.** Its IC50 is 4 nM.

**Q.** `CC1(C)C(=O)N(c2ccc(C#N)c(C(F)(F)F)c2)C(=O)N1Cc1ccccc1Nc1ccc(N)cc1` [Example 113, 4-{3-[2-(4-Aminophenylamino)benzyl]-4,4-dimethyl-2,5-dioxoimidazolidin-1-yl}-2-trifluoromethylbenzonitrile] was tested. Which IC50 did it give?
**A.** Its IC50 is 4 nM.

**Q.** Which IC50 does the source give for `CC1(C)C(=O)N(c2ccc(C#N)c(C(F)(F)F)c2)C(=O)N1Cc1ccccc1Nc1ccc(C(=O)O)c(O)c1` [Example 243] here?
**A.** The IC50 was 99 nM.

**Q.** With `CC1(C)C(=O)N(c2ccc(C#N)c(C(F)(F)F)c2)C(=O)N1Cc1c(Cl)cc(Cl)cc1Nc1ccc(C(=O)O)cc1` [Example 105, 4-{3,5-dichloro-2-[3-(4-cyano-3-trifluoromethylphenyl)-5,5-dimethyl-2,4-dioxoimidazolidin-1-ylmethyl]phenylamino}benzoic acid] as the compound, how does the IC50 read?
**A.** Its IC50 is 49 nM.

**Q.** How did the IC50 turn out when `CC1(C)C(=O)N(c2ccc(C#N)c(C(F)(F)F)c2)C(=O)N1Cc1cc(Cl)cc(Cl)c1Nc1ccc(F)cc1F` [Example 39, 4-{3-[3,5-dichloro-6-(2,4-difluorophenylamino)benzyl]-4,4-dimethyl-2,5-dioxoimidazolidin-1-yl}-2-trifluoromethylbenzonitrile] was run?
**A.** The IC50 was 69 nM.

**Q.** With `COC(=O)c1ccc(Nc2cc(C(F)(F)F)ccc2CN2C(=O)N(c3ccc(C#N)c(C(F)(F)F)c3)C(=O)C2(C)C)cc1` [Example 106, methyl 4-{2-[3-(4-cyano-3-trifluoromethylphenyl)-5,5-dimethyl-2,4-dioxoimidazolidin-1-ylmethyl]-5-trifluoromethylphenylamino}benzoate] as the compound, how does the IC50 read?
**A.** Its IC50 is 12 nM.

**Q.** How did the IC50 turn out when `CC1(C)C(=O)N(c2ccc(C#N)c(C(F)(F)F)c2)C(=O)N1Cc1ccccc1Nc1ccc(C#N)cc1` [Example 33, 4-{3-[2-(4-cyanophenylamino)benzyl]-4,4-dimethyl-2,5-dioxoimidazolidin-1-yl}-2-trifluoromethylbenzonitrile] was run?
**A.** The IC50 was 4 nM.

**Q.** `CC1(C)C(=O)N(c2ccc(C#N)c(C(F)(F)F)c2)C(=O)N1Cc1c(Cl)cc(Cl)cc1Nc1ccc(Cl)cc1` [Example 37, 4-{3-[2,4-dichloro-6-(4-chlorophenylamino)benzyl]-4,4-dimethyl-2,5-dioxoimidazolidin-1-yl}-2-trifluoromethylbenzonitrile] was tested. Which IC50 did it give?
**A.** Its IC50 is 21 nM.

**Q.** Which IC50 does the source give for `CC1(C)C(=O)N(c2ccc(C#N)c(C(F)(F)F)c2)C(=O)N1Cc1cccc(Cl)c1Nc1ccc(Cl)cc1` [Example 43, 4-{3-[5-chloro-6-(4-chlorophenylamino)benzyl]-4,4-dimethyl-2,5-dioxoimidazolidin-1-yl}-2-trifluoromethylbenzonitrile] here?
**A.** Its IC50 is 77 nM.

**Q.** Which IC50 does the source give for `COC(=O)c1ccc(Nc2cc(F)ccc2CN2C(=O)N(c3ccc(F)c(C(F)(F)F)c3)C(=O)C2(C)C)cc1` [Example 154, Methyl 4-{5-fluoro-2-[3-(4-fluoro-3-trifluoromethylphenyl)-5,5-dimethyl-2,4-dioxoimidazolidin-1-ylmethyl]phenylamino}benzoate] here?
**A.** Its IC50 is 8 nM.

**Q.** How did the IC50 turn out when `Cc1cc(N2C(=O)N(Cc3ccc(F)cc3Nc3ccc(C(=O)O)cc3)C(C)(C)C2=O)ccc1C#N` [Example 166, 4-{2-[3-(4-cyano-3-methylphenyl)-5,5-dimethyl-2,4-dioxoimidazolidin-1-ylmethyl]-5-fluorophenylamino}benzoic acid] was run?
**A.** The IC50 was 76 nM.

**Q.** With `CC1(C)C(=O)N(c2ccc(C#N)c(C(F)(F)F)c2)C(=O)N1Cc1ccccc1Nc1ccccc1Cl` [Example 21, 4-{3-[2-(2-chlorophenylamino)benzyl]-4,4-dimethyl-2,5-dioxoimidazolidin-1-yl}-2-trifluoromethylbenzonitrile] as the compound, how does the IC50 read?
**A.** The IC50 was 10 nM.

**Q.** Which IC50 does the source give for `CC1(C)C(=O)N(c2ccc(F)c(C(F)(F)F)c2)C(=O)N1Cc1ccc(F)cc1Nc1ccc2c(c1)CCC2=O` [Example 206, 1-[4-fluoro-2-(1-oxoindan-5-ylamino)benzyl]-3-(4-fluoro-3-trifluoromethylphenyl)-5,5-dimethylimidazolidine-2,4-dione] here?
**A.** Its IC50 is 24 nM.

**Q.** For `COC(=O)c1ccc(Nc2cc(Cl)cc(Cl)c2CN2C(=O)N(c3ccc(C#N)c(C(F)(F)F)c3)C(=O)C2(C)C)cc1` [Example 104, methyl 4-{3,5-dichloro-2-[3-(4-cyano-3-trifluoromethylphenyl)-5,5-dimethyl-2,4-dioxoimidazolidin-1-ylmethyl]phenylamino}benzoate], which IC50 is on record?
**A.** Its IC50 is 15 nM.

**Q.** How did the IC50 turn out when `CC1(C)C(=O)N(c2ccc(C#N)c(C(F)(F)F)c2)C(=O)N1Cc1ccccc1Nc1ccc(NS(C)(=O)=O)cc1` [Example 175, N-(4-{2-[3-(4-Cyano-3-trifluoromethylphenyl)-5,5-dimethyl-2,4-dioxoimidazolidin-1-ylmethyl]phenylamino}phenyl)methanesulfonamide] was run?
**A.** The IC50 was 9 nM.

**Q.** How did the IC50 turn out when `CC1(C)C(=O)N(c2ccc(F)c(C(F)(F)F)c2)C(=O)N1Cc1ccc(F)cc1Nc1ccc2c(c1)C(=O)CCO2` [Example 239, 1-[4-fluoro-2-(4-oxochroman-6-ylamino)benzyl]-3-(4-fluoro-3-trifluoromethylphenyl)-5,5-dimethylimidazolidine-2,4-dione] was run?
**A.** The IC50 was 103 nM.

**Q.** With `CC1(C)C(=O)N(c2ccc(C#N)c(C(F)(F)F)c2)C(=O)N1Cc1ccccc1Nc1ccccc1F` [Example 44, 4-{3-[2-(2-fluorophenylamino)benzyl]-4,4-dimethyl-2,5-dioxoimidazolidin-1-yl}-2-trifluoromethylbenzonitrile] as the compound, how does the IC50 read?
**A.** Its IC50 is 7 nM.

**Q.** `CC1(C)C(=O)N(c2ccc(C#N)c(C(F)(F)F)c2)C(=O)N1Cc1ccccc1Nc1ccc(C#N)c(C(F)(F)F)c1` [Example 3, 4-{3-[2-(4-cyano-3-trifluoromethylphenylamino)benzyl]-4,4-dimethyl-2,5-dioxoimidazolidin-1-yl}-2-trifluoromethylbenzonitrile] was tested. Which IC50 did it give?
**A.** Its IC50 is 22 nM.

**Q.** `COC(=O)c1ccc(Nc2ccccc2CN2C(=O)N(c3ccc(C#N)c(C(F)(F)F)c3)C(=O)C2(C)C)c(F)c1` [Example 72, methyl 4-{2-[3-(4-cyano-3-trifluoromethylphenyl)-5,5-dimethyl-2,4-dioxoimidazolidin-1-ylmethyl]phenylamino}-3-fluorobenzoate] was tested. Which IC50 did it give?
**A.** Its IC50 is 24 nM.

**Q.** How did the IC50 turn out when `CC1(C)C(=O)N(c2ccc(C#N)c(C3CC3)c2)C(=O)N1Cc1ccc(F)cc1Nc1ccc(C(=O)O)cc1` [Example 159, 4-{2-[3-(4-cyano-3-cyclopropylphenyl)-5,5-dimethyl-2,4-dioxoimidazolidin-1-ylmethyl]-5-fluorophenylamino}benzoic acid] was run?
**A.** The IC50 was 2 nM.

**Q.** With `CC1(C)C(=O)N(c2ccc(C#N)c(C(F)(F)F)c2)C(=O)N1Cc1ccccc1Nc1ccc(C(C(=O)O)C(=O)O)cc1` [Example 238, 2-(4-{2-[3-(4-cyano-3-trifluoromethylphenyl)-5,5-dimethyl-2,4-dioxoimidazolidin-1-ylmethyl]phenylamino}phenyl)malonic acid] as the compound, how does the IC50 read?
**A.** Its IC50 is 10 nM.

**Q.** `CC1(C)C(=O)N(c2ccc(C#N)c(C(F)(F)F)c2)C(=O)N1Cc1cc(Cl)cc(Cl)c1Nc1ccc(Cl)cc1` [Example 40, 4-{3-[3,5-dichloro-6-(4-chlorophenylamino)benzyl]-4,4-dimethyl-2,5-dioxoimidazolidin-1-yl}-2-trifluoromethylbenzonitrile] was tested. Which IC50 did it give?
**A.** Its IC50 is 30 nM.

**Q.** Which IC50 does the source give for `CC1(C)C(=O)N(c2ccc(C#N)c(C(F)(F)F)c2)C(=O)N1Cc1ccccc1Nc1ccc(O)nn1` [Example 198, 4-{3-[2-(6-Hydroxypyridazin-3-ylamino)benzyl]-4,4-dimethyl-2,5-dioxoimidazolidin-1-yl}-2-trifluoromethylbenzonitrile trifluoroacetic acid] here?
**A.** Its IC50 is 23 nM.

**Q.** For `CC1(C)C(=O)N(c2ccc(C#N)c(C(F)(F)F)c2)C(=O)N1Cc1ccccc1Nc1cccc(Cl)c1` [Example 22, 4-{3-[2-(3-chlorophenylamino)benzyl]-4,4-dimethyl-2,5-dioxoimidazolidin-1-yl}-2-trifluoromethylbenzonitrile], which IC50 is on record?
**A.** The IC50 was 46 nM.

**Q.** `CC1(C)C(=O)N(c2ccc(C#N)c(-c3ccc(Cl)cc3)c2)C(=O)N1Cc1ccc(F)cc1Nc1ccc(C(=O)O)cc1` [Example 228, 4-{2-[3-(4′-chloro-6-cyanobiphenyl-3-yl)-5,5-dimethyl-2,4-dioxoimidazolidin-1-ylmethyl]-5-fluorophenylamino}benzoic acid] was tested. Which IC50 did it give?
**A.** The IC50 was 61 nM.
